In ChEMBL document CHEMBL5500412, “Discovery of Highly Selective, Potent, Covalent, and Orally Bioavailable Factor XIIa Inhibitors for the Treatment of Thrombo-Inflammation” (J Med Chem, 2024):
The source made the active and inactive calls. No cut-off for these calls is given here.

Tests used:
[1] = Stability of the compound in water at pH 5 to 7 measured after 48 hrs; assay type: physicochemical; settings: buffer, pH 5, 48 h
[2] = Selectivity index, ratio of IC50 for trypsin (unknown origin) to IC50 for FXIIa (unknown origin)
Coagulation factor XI = Coagulation factor XI (Homo sapiens, UniProt P03951); assay: Inhibition of FXIa (unknown origin) using p-Glu-Pro-Arg-pNA.HCl as chromogenic substrate incubated for 20 mins followed by substrate addition by spectrophotometric analysis
Chain of Coagulation factor XI (P03951 19-387 limits assumed): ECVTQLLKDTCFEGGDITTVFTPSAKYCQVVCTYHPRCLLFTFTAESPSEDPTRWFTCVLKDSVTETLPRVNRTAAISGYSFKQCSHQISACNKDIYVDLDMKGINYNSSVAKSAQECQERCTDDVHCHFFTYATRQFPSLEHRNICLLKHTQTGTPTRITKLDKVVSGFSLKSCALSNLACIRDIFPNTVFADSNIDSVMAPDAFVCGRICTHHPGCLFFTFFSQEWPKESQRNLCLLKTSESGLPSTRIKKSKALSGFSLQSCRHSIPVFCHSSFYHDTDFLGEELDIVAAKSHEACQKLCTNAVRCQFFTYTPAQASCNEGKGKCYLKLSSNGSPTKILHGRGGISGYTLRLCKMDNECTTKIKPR
Chain of Coagulation factor XI (P03951 388-625 limits assumed): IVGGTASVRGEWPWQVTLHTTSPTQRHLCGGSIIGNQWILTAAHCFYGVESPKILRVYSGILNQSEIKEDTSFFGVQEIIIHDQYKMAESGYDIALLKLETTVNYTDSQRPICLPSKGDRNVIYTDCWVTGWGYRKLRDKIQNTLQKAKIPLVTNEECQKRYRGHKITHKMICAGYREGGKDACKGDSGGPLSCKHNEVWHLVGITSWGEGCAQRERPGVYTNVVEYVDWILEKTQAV

RAW264.7 [3] = assay: Antiinflammatory activity in mouse RAW264.7 cells assessed as inhibition of LPS-induced IL-6 expression preincubated for 12 hrs followed by LPS stimulation and measured after 12 hrs by real time quantitative RT-PCR assay; assay type: functional, cell-based; settings: dose 5-10 µM, time 24.0 hrs
[4] = Selectivity index, ratio of IC50 for PKal (unknown origin) to IC50 for FXIIa (unknown origin)
Plasma [5] = assay: Anticoagulant activity in human plasma assessed as prolongation of activated partial thromboplastin time at 300 uM incubated for 2 mins by aPTT reagent based assay relative to control; assay type: functional
RAW264.7 [6] = assay: Cytotoxicity against mouse RAW264.7 cells assessed as reduction in cell viability at upto 40 uM by CCK-8 assay; assay type: toxicity, cell-based; settings: raw264.7, 40 µM
RAW264.7 [7] = assay: Antiinflammatory activity in mouse RAW264.7 cells assessed as inhibition of LPS-induced IL-1 beta expression at 10 uM preincubated for 12 hrs followed by LPS stimulation and measured after 12 hrs by real time quantitative RT-PCR assay; assay type: functional, cell-based; settings: time 24.0 hrs
[8] = Selectivity index, ratio of IC50 for plasmin (unknown origin) to IC50 for FXIIa (unknown origin)
Plasma [9] = assay: Anticoagulant activity in mouse plasma at 25 uM measures upto 20 mins by aPTT reagent based analysis; assay type: functional, cell-free
[10] = Selectivity index, ratio of IC50 for chymotrypsin (unknown origin) to IC50 for FXIIa (unknown origin)
[11] = Stability of the compound in water under acidic condition at pH 3 measured after 48 hrs; assay type: physicochemical; settings: buffer, pH 3, 48 h
Mus musculus [12] = assay: Antithrombotic activity in carrageenan induced thrombosis in male BALB/c mouse model assessed as reduction in tail thrombosis administered as IG dose preadministered with PBS for 7 days followed by carrageenan stimulation on day 7 and measured after 2 days post compound administration; assay type: functional, organism-based; settings: dose 10-30 mg/kg, time 2.0 day
Plasma [13] = assay: Anticoagulant activity in human plasma assessed as prolongation of activated partial thromboplastin time incubated for 2 mins by aPTT reagent based assay; assay type: functional
Mus musculus [14] = assay: Antiinflammatory activity in carrageenan-induced thrombosis in male BALB/c mouse model assessed as reduction in IL-6 level at 20 mg/kg, po by ELISA method; assay type: functional, organism-based
Plasma [15] = assay: Anticoagulant activity in human blood plasma at 75 uM measures upto 20 mins by aPTT reagent based analysis; assay type: functional, cell-free
Trypsin = Trypsin (Homo sapiens, UniProt P07477+P07478+P35030); assay: Inhibition of trypsin (unknown origin) using Bz-lle-Glu(gamma-OR)-Gly-Arg-pNA.HCl as chromogenic substrate incubated for 20 mins followed by substrate addition by spectrophotometric analysis; assay type: protein assay
Plasma [16] = assay: Anticoagulant activity in non-activated human plasma at 10 to 25 uM measured after 260 mins; assay type: functional, cell-free; settings: dose 10-25 µM
Plasma [17] = assay: Selectivity ratio of anticoagulant activity in non-activated human plasma at 10 to 25 uM measured after 260 mins to anticoagulant activity in non-activated human plasma at 10 to 25 uM measured after 2 mins; assay type: functional; settings: dose 10-25 µM, 4.333 h
[18] = Stability of the compound in water under […] condition at pH 11 measured after 48 hrs; assay type: physicochemical; settings: buffer, pH 11, 48 h
Plasma [19] = assay: Anticoagulant activity in human plasma assessed as prolongation of […] time at 300 uM incubated for 2 mins by PT reagent based assay; assay type: functional, cell-free
Plasma kallikrein = Plasma kallikrein (Homo sapiens, UniProt P03952); assay: Inhibition of PKal (unknown origin) using H-D-Pro-Phe-Arg-pNA-2HCl as substrate incubated for 20 mins followed by substrate addition by spectrophotometric analysis
Chain of Plasma kallikrein (P03952 20-390 limits assumed): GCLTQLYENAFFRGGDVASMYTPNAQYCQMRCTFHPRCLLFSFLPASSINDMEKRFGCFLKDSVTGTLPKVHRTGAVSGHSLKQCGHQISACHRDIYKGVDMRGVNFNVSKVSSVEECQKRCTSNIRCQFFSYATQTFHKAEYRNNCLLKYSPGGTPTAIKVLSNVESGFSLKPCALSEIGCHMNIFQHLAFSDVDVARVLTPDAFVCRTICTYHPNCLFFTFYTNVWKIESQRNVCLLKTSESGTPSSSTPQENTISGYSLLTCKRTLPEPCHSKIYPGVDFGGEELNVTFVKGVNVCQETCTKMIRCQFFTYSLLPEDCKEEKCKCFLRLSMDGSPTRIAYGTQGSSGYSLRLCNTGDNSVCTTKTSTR
Chain of Plasma kallikrein (P03952 391-638 limits assumed): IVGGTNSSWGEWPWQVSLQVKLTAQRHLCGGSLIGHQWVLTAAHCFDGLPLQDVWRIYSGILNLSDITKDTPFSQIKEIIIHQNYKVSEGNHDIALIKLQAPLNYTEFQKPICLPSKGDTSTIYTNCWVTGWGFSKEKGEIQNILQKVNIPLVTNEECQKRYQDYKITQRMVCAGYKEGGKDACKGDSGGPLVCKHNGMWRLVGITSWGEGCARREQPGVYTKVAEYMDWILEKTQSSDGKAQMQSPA

Prothrombin = Prothrombin (Homo sapiens, UniProt P00734); assay: Inhibition of thrombin (unknown origin) using H-D-Phe-Pip-Arg-pNA-2HCl as substrate incubated for 20 mins followed by substrate addition by spectrophotometric analysis
Coagulation factor X = Coagulation factor X (Homo sapiens, UniProt P00742); assay: Inhibition of FXa (unknown origin) using Z-D-Arg-Gly-Arg-pNA.2HCl as chromogenic substrate incubated for 20 mins followed by substrate addition by spectrophotometric analysis
Chain of Coagulation factor X (P00742 41-179 limits assumed): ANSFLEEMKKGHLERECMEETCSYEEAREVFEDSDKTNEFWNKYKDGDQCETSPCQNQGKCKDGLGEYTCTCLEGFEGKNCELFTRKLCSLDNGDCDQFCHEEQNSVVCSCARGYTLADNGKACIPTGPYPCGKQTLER
Chain of Coagulation factor X (P00742 235-488 limits assumed): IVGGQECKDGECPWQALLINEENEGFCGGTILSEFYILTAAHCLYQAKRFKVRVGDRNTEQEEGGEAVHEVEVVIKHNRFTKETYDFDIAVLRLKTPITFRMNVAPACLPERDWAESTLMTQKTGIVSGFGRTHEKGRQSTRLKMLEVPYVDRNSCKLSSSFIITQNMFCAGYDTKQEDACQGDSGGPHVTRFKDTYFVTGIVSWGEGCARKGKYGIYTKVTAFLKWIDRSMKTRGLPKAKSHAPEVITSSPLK

[20] = Selectivity index, ratio of IC50 for FXa (unknown origin) to IC50 for FXIIa (unknown origin)
Mus musculus [21] = assay: Antithrombotic activity in carrageenan induced thrombosis in male BALB/c mouse model assessed as thrombosis rate at 30 mg/kg, IG preadministered with PBS for 7 days followed by carrageenan stimulation on day 7 and measured after 2 days post compound administration relative to control; assay type: functional; settings: time 2 day
RAW264.7 [22] = assay: Antiinflammatory activity in mouse RAW264.7 cells assessed as inhibition of LPS-induced IL-6 expression at 10 uM preincubated for 12 hrs followed by LPS stimulation and measured after 12 hrs by real time quantitative RT-PCR assay; assay type: functional, cell-based; settings: time 24.0 hrs
Mus musculus [23] = assay: Antiinflammatory activity in carrageenan-induced thrombosis in male BALB/c mouse model assessed as reduction in IL-1 beta level at 20 mg/kg, po by ELISA method; assay type: functional, organism-based
Mus musculus [24] = assay: Antithrombotic activity in carrageenan induced thrombosis in male BALB/c mouse model assessed as inhibition of tail thrombosis at 20 to 30 mg/kg, IG preadministered with PBS for 7 days followed by carrageenan stimulation on day 7 and measured after 2 days post compound administration by H and E staining based analysis; assay type: functional, organism-based; settings: dose 20-30 mg/kg, time 2.0 day
[25] = Selectivity index, ratio of IC50 for tPA (unknown origin) to IC50 for FXIIa (unknown origin)
[26] = Selectivity index, ratio of IC50 for FXIa (unknown origin) to IC50 for FXIIa (unknown origin)
Plasminogen = Plasminogen (Homo sapiens, UniProt P00747); assay: Inhibition of plasmin (unknown origin) using PyroGlu-Phe-Lys-pNA.HCl as chromogenic substrate incubated for 20 mins followed by substrate addition by spectrophotometric analysis
Chain of Plasminogen (P00747 97-580 limits assumed): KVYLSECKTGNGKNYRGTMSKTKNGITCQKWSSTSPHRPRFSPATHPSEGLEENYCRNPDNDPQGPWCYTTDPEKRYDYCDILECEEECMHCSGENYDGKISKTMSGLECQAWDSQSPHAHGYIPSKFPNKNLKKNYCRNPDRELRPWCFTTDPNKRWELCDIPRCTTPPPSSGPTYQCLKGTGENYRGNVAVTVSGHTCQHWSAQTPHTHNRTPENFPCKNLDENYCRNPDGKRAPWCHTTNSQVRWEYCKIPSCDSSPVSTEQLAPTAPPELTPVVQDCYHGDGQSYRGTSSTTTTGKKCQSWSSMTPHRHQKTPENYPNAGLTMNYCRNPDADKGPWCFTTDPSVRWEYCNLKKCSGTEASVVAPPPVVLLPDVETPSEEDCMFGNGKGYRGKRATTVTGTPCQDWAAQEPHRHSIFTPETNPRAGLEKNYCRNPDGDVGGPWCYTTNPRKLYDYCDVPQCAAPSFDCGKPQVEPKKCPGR
Chain of Plasminogen (P00747 581-810 limits assumed): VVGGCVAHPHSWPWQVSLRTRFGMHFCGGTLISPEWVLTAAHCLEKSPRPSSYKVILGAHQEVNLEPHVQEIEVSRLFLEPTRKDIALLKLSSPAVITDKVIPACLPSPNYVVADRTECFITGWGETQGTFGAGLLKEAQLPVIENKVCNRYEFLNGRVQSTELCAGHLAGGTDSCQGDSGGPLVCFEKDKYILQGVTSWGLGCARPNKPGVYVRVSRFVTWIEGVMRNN

[27] = molecular target: Tissue-type plasminogen activator (Homo sapiens, UniProt P00750); assay: Inhibition of tPA (unknown origin) using H-D-lle-Pro-Arg-pNA-2HCl as chromogenic substrate incubated for 20 mins followed by substrate addition by spectrophotometric analysis
Chain of Tissue-type plasminogen activator (P00750 whole entry): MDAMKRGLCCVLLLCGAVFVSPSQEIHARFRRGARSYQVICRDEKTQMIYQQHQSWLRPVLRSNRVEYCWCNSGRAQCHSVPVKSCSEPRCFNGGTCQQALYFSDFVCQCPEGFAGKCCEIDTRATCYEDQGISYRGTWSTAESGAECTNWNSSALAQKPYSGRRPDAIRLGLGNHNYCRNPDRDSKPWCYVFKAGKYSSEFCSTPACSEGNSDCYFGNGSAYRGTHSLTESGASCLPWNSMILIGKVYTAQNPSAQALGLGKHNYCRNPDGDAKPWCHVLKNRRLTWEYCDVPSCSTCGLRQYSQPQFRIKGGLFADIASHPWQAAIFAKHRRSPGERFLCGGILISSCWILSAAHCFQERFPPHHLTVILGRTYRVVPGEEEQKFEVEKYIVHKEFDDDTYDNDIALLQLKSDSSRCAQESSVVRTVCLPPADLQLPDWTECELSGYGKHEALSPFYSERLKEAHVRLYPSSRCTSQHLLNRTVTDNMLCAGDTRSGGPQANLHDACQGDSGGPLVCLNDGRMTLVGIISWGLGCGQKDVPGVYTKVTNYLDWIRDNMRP

[28] = Selectivity index, ratio of IC50 for thrombin (unknown origin) to IC50 for FXIIa (unknown origin)
RAW264.7 [29] = assay: Antiinflammatory activity in mouse RAW264.7 cells assessed as inhibition of LPS-induced IL-1 beta expression preincubated for 12 hrs followed by LPS stimulation and measured after 12 hrs by real time quantitative RT-PCR assay; assay type: functional, cell-based; settings: dose 5-10 µM, time 24.0 hrs
Plasma [30] = assay: Anticoagulant activity in non-activated human plasma assessed as prolongation of activated partial thromboplastin time measured after 260 mins; assay type: functional; settings: 4.333 h

Row | Structure (SMILES) | Stability [1] | Ratio IC50 [2] | IC50 (Coagulation factor XI) [µM] | Activity (RAW264.7 [3]) | Ratio IC50 [4] | Activity (Plasma [5]) [%] | Activity (RAW264.7 [6]) | Activity (RAW264.7 [7]) | Ratio IC50 [8] | Activity (Plasma [9]) | Ratio IC50 [10] | Stability [11] | Activity (Mus musculus [12]) | EC1.5 (Plasma [13]) [µM] | Activity (Mus musculus [14]) | Activity (Plasma [15]) | IC50 (Trypsin) [µM] | Activity (Plasma [16]) | Ratio (Plasma [17]) | Stability [18] | further results
1 | CC(C)N1CCCN(c2ccc(C(=O)n3nc(-c4ccccn4)nc3N)c3ccccc23)CC1 | Stable | > 1190 | > 25 | Dose-Dependent Effect | > 1190 | 905 | Non-Toxic | Active | > 1190 | Active | > 1190 | Stable | Dose-Dependent Effect | 37 | Active | Active | > 25 | Active | 2 | Stable | Activity (Plasma [19]): inactive; IC50 (Plasma kallikrein): > 25 µM; IC50 (Prothrombin): 7 µM; IC50 (Coagulation factor X): > 25 µM; Ratio IC50 [20]: > 1190; Activity (Mus musculus [21]): ~10%; Activity (RAW264.7 [22]): Active; Activity (Mus musculus [23]): Active; Activity (Mus musculus [24]): Active; Ratio IC50 [25]: > 1190; Ratio IC50 [26]: > 1190; IC50 (Plasminogen): > 25 µM; IC50 [27]: > 25 µM; Ratio IC50 [28]: 210; Activity (RAW264.7 [29]): Dose-Dependent Effect; EC1.5 (Plasma [30]): 9 µM
2 | CC(C)N1CCN(c2ccc(C(=O)n3nc(-c4ccccn4)nc3N)c3ccccc23)CC1 | Stable | > 670 | > 25 | Dose-Dependent Effect | > 670 | 542 | Non-Toxic | Active | > 670 | Active | > 670 | Stable | Dose-Dependent Effect | 68 | Active | Active | > 25 | Active | 2 | Stable | Activity (Plasma [19]): inactive; IC50 (Plasma kallikrein): > 25 µM; IC50 (Prothrombin): 20 µM; IC50 (Coagulation factor X): > 25 µM; Ratio IC50 [20]: > 670; Activity (Mus musculus [21]): ~30%; Activity (RAW264.7 [22]): Active; Activity (Mus musculus [23]): Active; Activity (Mus musculus [24]): Active; Ratio IC50 [25]: > 670; Ratio IC50 [26]: > 670; IC50 (Plasminogen): > 25 µM; IC50 [27]: > 25 µM; Ratio IC50 [28]: 910; Activity (RAW264.7 [29]): Dose-Dependent Effect; EC1.5 (Plasma [30]): 14 µM
